US5262537A, “Derivatives of 4,5,6,7-tetrahydroimidazo-[4,5-c]pyridinyl-6-carboxylic acid” (priority 1993, dated 1993)
pIC50: −log10 of the molar value. Counter-ions that a name gives are not always drawn. Like-named read-outs stand apart in the source and are kept apart here.

Columns and labels:
5-HT3 = target: T1, 5-HT3 (Rattus norvegicus, UniProt P35563); assay: biochemical; format: binding, Male Sprague-Dawley rats
T1 sequence (P35563 24-483): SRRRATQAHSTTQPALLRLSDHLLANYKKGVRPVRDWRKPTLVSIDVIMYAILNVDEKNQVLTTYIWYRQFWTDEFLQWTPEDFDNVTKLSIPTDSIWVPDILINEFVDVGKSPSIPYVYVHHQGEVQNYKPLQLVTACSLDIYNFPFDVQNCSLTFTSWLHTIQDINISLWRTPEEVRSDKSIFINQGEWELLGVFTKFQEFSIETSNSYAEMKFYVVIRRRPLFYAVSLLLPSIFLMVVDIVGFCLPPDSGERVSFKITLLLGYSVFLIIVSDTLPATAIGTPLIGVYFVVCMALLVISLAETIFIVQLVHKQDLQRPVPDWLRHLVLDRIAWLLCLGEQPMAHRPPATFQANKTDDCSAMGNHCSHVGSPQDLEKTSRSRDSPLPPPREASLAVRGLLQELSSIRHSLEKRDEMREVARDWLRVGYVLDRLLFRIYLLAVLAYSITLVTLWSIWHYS
Method: A number of compounds in accordance with the present invention were tested for their 5-HT3 and D2 binding affinities in accord with the following procedures.
Male Sprague-Dawley rats (175-220 g) were sacrificed by decapitation and their brains removed rapidly. The entorhinal cortex was used for the 5-HT3 (5-hydroxytryptamine) binding assay and the remainder of the brain, minus the brain stem and cerebellum, was used for the D2 (dopamine) binding assay. The entorhinal cortex was harvested and prepared on the day of the assay.
The entorhinal cortex was homogenized in 20 volumes of cold 50 mM HEPES buffer, pH 7.4, while the remaining brain tissue was homogenized in 20 volumes of cold 50 mM Tris, pH 7.4. The homogenates were centrifuged at 4800×g for 15 minutes at 5° C. and the supernatants decanted. Pellets were resuspended in the original volume of HEPES or Tris. Homogenates were centrifuged and the supernatants decanted. Pellets were resuspended in the same volume of HEPES or Tris and incubated at 37° C. for 45 minutes to remove endogenous neurotransmitters. Homogenates were centrifuged and the supernatants were decanted. Pellets for D2 assays were stored at -50° C. until the day of the assay. The pellets for the 5-HT3 assay (entorhinal cortex) were resuspended in the appropriate amount of HEPES buffer and used promptly. Modifications of published assays for [^3 H]GR65630 (Kilpatrick et al., Nature: 330, 746-748 (1987)) and [^3 H]raclopride (Dewar et al., J. Pharmacol. Exp. Ther.: 250, 696-706 (1989) and Lidow et al., Proc. Natl. Acad. Sci. USA: 86, 6412-6416 (1989)) were used for the 5-HT3 and D2 binding assays, respectively.
Briefly, 0.25 ml of homogenate was incubated with either 0.2 nM of [^3 H]GR65630 or 1.0 nM of [^3 H]raclopride in a final volume of 0.5 ml. D2 binding also requires sodium chloride and potassium chloride (120 mM and 5 mM, final concentration, respectively). In the 5-HT3 assay, non-specific binding was defined in the presence of 100 uM quipazine. In the D2 assay, non-specific binding was defined in the presence of 100 uM of (+/-) sulpiride. Both assays were incubated at room temperature; [^3 H]GR65630 for 40 minutes and [^3 H]raclopride for 60 minutes. Test compounds (0.1 ml) were added to incubates where appropriate. Bound ligand was separated from free ligand by filtration and quantified using liquid scintillation spectrophotometry. IC50 values were calculate for all test compounds.

Ferret = assay: Cisplatin Ferret Assay--Antiemetic Screening; format: in vivo, Male ferrets; details: for inhibition in vivo at 0.1 mg/kg / ED50: Mustela putorius, iv, 4 h; for inhibition in vivo at 0.1 mg/kg: read-out: Ferret Cisplatin Test % Prot, 0.1 mg/Kg; for ED50: i.v., emetic episodes over four hours, read-out: Ferret Cisplatin Test ED50
Method: Male ferrets (castrated, descented, 1-2 kg) were purchased from Triple F Farms, Syre, Pa. Ferrets were housed four in a cage with a 12 hour light cycle and were fed ad libitum with Ralston Purina Cat Chow. Each ferret was used unfasted for the assay after a minimum of a 24 hour acclimation time in animal facility.
Ferret Preparation. Each ferret was anesthetized with 5% isoflurane-O2in a 20 gallon aquarium for 2 to 5 minutes. After removal of the anesthetic gas, the animals were removed and weighed. Injections were made into the dorsal front paw vein using a tourniquet and a 1 ml tuberculin syringe with a 25 g needle while the animal was maintained under anesthesia using a small nose cone delivering 5% isoflurane-O2. Cisplatin was injected using a 3 ml or 5 ml syringe in the opposite paw from the study compound or saline. Recovery time from anaesthesia was 5 to 8 minutes.
Drug Preparation. Cisplatin bulk powder was weighed and dissolved in normal saline at 75° C. to provide a 5 mg/ml solution (90 mg was placed in a scintillation vial and qs with 18 ml saline). The solution was stirred and maintained at 40° C. until ready for use. The study drug was weighed and dissolved in normal saline at room temperature to provide a 1 mg/ml solution (10 mg was placed in a scintillation vial and qs with 10 ml saline). Suspensions were heated to 40° C. to bring the study compound into solution. Compounds not soluble under these conditions were not assayed.
Assay. Cisplatin was injected i.v. at 10 mg/kg into twelve anesthetized ferrets daily at time zero. Normal saline (0.5 ml) or the study compound (0.1 or 1.0 mg/kg) was injected 30 minutes later in groups of three anesthetized ferrets. Order of treatment and treatment dose was selected at random, with the remaining treatment dose assayed in the next experiment.
Experimental Observations and Data Collection. Ferrets were viewed individually. The time and number of emetic episodes were recorded for four hours. Zero time was equivalent to the time of cisplatin injection. […] Retches were recorded but not counted. The total number of episodes for each of the four groups of three ferrets (+/-S.E.) was averaged and the effect of treatment (% protection) was calculated as the percent reduction of emetic episodes compared to controls. [formula]
Percent protection values were determined from experimental controls. Experimental controls were those obtained from the day of the experiment. Onset times of the first episode were averaged and recorded for each group. Prodromal signs (lip licking, slit eyes, head shaking, salivation, scratching, clawing, walking backward, sedation, urination, and defecation) were also averaged and recorded.

[1] = 0.2 nM [3H]GR65630, rat entorhinal cortex, 40 minutes, room temperature, read-out: 5-HT3 IC50
[2] = 0.1 mg/kg i.v., 30 minutes after cisplatin 10 mg/kg i.v., percent reduction of emetic episodes vs controls, four hours
[3] = 30 minutes after cisplatin 10 mg/kg i.v.

CN1Cc2nc[nH]c2C[C@@H]1C(=O)Nc1ccccc1O [Compd 1]
pIC50 (5-HT3; [1]): 7.96
inhibition in vivo at 0.1 mg/kg (Ferret; [2]): 73%
ED50 (Ferret; [3]): 0.063 mg/kg

COc1ccc(Cl)cc1NC(=O)[C@H]1Cc2[nH]cnc2CN1C [Compd 2]
pIC50 (5-HT3; [1]): 8.00
inhibition in vivo at 0.1 mg/kg (Ferret; [2]): 31%
ED50 (Ferret; [3]): 0.4 mg/kg

COc1ccccc1NC(=O)[C@H]1Cc2[nH]cnc2CN1C [Compd 3]
pIC50 (5-HT3; [1]): 7.32
inhibition in vivo at 0.1 mg/kg (Ferret; [2]): 9%
ED50 (Ferret; [3]): 2.08 mg/kg

COC(=O)c1ccccc1NC(=O)[C@H]1Cc2[nH]cnc2CN1C [Compd 4]
pIC50 (5-HT3; [1]): 7.92
inhibition in vivo at 0.1 mg/kg (Ferret; [2]): 33%
ED50 (Ferret; [3]): 0.1 mg/kg

CC(=O)c1ccccc1NC(=O)[C@H]1Cc2[nH]cnc2CN1C [Compd 5]
pIC50 (5-HT3; [1]): 8.37
inhibition in vivo at 0.1 mg/kg (Ferret; [2]): 22%
ED50 (Ferret; [3]): 0.123 mg/kg

COc1ccccc1NC(=O)[C@@H]1Cc2[nH]cnc2CN1C [Compd 6]
pIC50 (5-HT3; [1]): 8.31
inhibition in vivo at 0.1 mg/kg (Ferret; [2]): 77%
ED50 (Ferret; [3]): 0.023 mg/kg

COc1ccc(Cl)cc1NC(=O)[C@@H]1Cc2[nH]cnc2CN1C [Compd 7]
pIC50 (5-HT3; [1]): 8.20
inhibition in vivo at 0.1 mg/kg (Ferret; [2]): 57%
ED50 (Ferret; [3]): 0.14 mg/kg

COc1ccccc1NC(=O)[C@H]1Cc2[nH]cnc2CN1 [Compd 8]
pIC50 (5-HT3; [1]): 7.98
inhibition in vivo at 0.1 mg/kg (Ferret; [2]): 62%

CN1Cc2nc[nH]c2C[C@@H]1C(=O)Nc1ccccc1 [Compd 9]
pIC50 (5-HT3; [1]): 7.24
inhibition in vivo at 0.1 mg/kg (Ferret; [2]): 26%
ED50 (Ferret; [3]): 0.33 mg/kg

CCOc1ccccc1NC(=O)[C@H]1Cc2[nH]cnc2CN1C [Compd 10]
pIC50 (5-HT3; [1]): 8.38
inhibition in vivo at 0.1 mg/kg (Ferret; [2]): 29%
ED50 (Ferret; [3]): 0.31 mg/kg

CN1Cc2nc[nH]c2C[C@@H]1C(=O)Nc1ccccc1Oc1ccccc1 [Compd 11]
pIC50 (5-HT3; [1]): 8.09
inhibition in vivo at 0.1 mg/kg (Ferret; [2]): 15%
ED50 (Ferret; [3]): 0.47 mg/kg

CN1Cc2[nH]cnc2C[C@@H]1C(=O)Nc1nccs1 [Compd 12]
pIC50 (5-HT3; [1]): 6.56
Ferret Cisplatin Test % Prot, 0.1 mg/Kg (Ferret; [2]): 40%

CN1Cc2nc[nH]c2C[C@@H]1C(=O)Nc1nc2ccccc2s1 [Compd 13, (R)-6-(2-benzothiazolylaminocarbonyl)-5-methyl-4,5,6,7-tetrahydroimidazo[4,5-c]pyridine]
pIC50 (5-HT3; [1]): 7.15
inhibition in vivo at 0.1 mg/kg (Ferret; [2]): 76%
ED50 (Ferret; [3]): 0.074 mg/kg

COc1ccccc1NC(=O)[C@@H]1Cc2[nH]cnc2CN1 [Compd 14, (S)-6-(2-methoxyphenyl)aminocarbonyl-4,5,6,7-tetrahydroimidazo[4,5-c]pyridine]
pIC50 (5-HT3; [1]): 8.07
inhibition in vivo at 0.1 mg/kg (Ferret; [2]): 48%
ED50 (Ferret; [3]): 0.062 mg/kg

CN1Cc2nc[nH]c2C[C@H]1C(=O)Nc1ccccc1O [Compd 15, (S)-6-(2-hydroxyphenylaminocarbonyl)-5-methyl-4,5,6,7-tetrahydroimidazo[4,5-c]pyridine]
pIC50 (5-HT3; [1]): 7.21
inhibition in vivo at 0.1 mg/kg (Ferret; [2]): 99%
ED50 (Ferret; [3]): 0.007 mg/kg

COC(=O)c1ccccc1NC(=O)[C@@H]1Cc2[nH]cnc2CN1C [Compd 16]
pIC50 (5-HT3; [1]): 7.54
inhibition in vivo at 0.1 mg/kg (Ferret; [2]): 42%
ED50 (Ferret; [3]): 0.01 mg/kg

CCOc1ccccc1NC(=O)[C@@H]1Cc2[nH]cnc2CN1C [Compd 17]
pIC50 (5-HT3; [1]): 7.81
inhibition in vivo at 0.1 mg/kg (Ferret; [2]): 58%
ED50 (Ferret; [3]): 0.2 mg/kg

CCN1Cc2nc[nH]c2C[C@H]1C(=O)Nc1ccccc1O [Compd 18]
pIC50 (5-HT3; [1]): 7.75
inhibition in vivo at 0.1 mg/kg (Ferret; [2]): 46%
ED50 (Ferret; [3]): 0.16 mg/kg

CN1Cc2nc[nH]c2C[C@@H]1C(=O)c1ccccc1 [Compd 19, (R)-6-benzoyl-5-methyl-4,5,6,7-tetrahydroimidazo[4,5-c]pyridine]
pIC50 (5-HT3): 7.23
inhibition in vivo at 0.1 mg/kg (Ferret): 8%

COc1ccccc1NC(=O)[C@@H]1Cc2nc[nH]c2C(C)(C)N1 [Compd 20]
pIC50 (5-HT3; [1]): 7.66
Ferret Cisplatin Test % Prot, 0.1 mg/Kg (Ferret; [2]): 72%
ED50 (Ferret; [3]): 0.008 mg/kg

CN1Cc2nc[nH]c2C[C@@H]1C(=O)Nc1cccc2nsnc12 [Compd 21]
pIC50 (5-HT3; [1]): 8.70
inhibition in vivo at 0.1 mg/kg (Ferret; [2]): 24%
ED50 (Ferret; [3]): 0.39 mg/kg

CN1Cc2nc[nH]c2C[C@H]1C(=O)Nc1nc2ccccc2s1 [Compd 22]
pIC50 (5-HT3; [1]): 7.43
inhibition in vivo at 0.1 mg/kg (Ferret; [2]): 14%

CN1Cc2nc[nH]c2C[C@H]1C(=O)Nc1cccc2nsnc12 [Compd 23]
pIC50 (5-HT3; [1]): 7.80
inhibition in vivo at 0.1 mg/kg (Ferret; [2]): 100%
ED50 (Ferret; [3]): 0.016 mg/kg

CN1[C@H](C(=O)Nc2ccccc2O)Cc2[nH]cnc2C1(C)C [Compd 24]
pIC50 (5-HT3; [1]): 7.33
inhibition in vivo at 0.1 mg/kg (Ferret; [2]): 48%
ED50 (Ferret; [3]): 0.025 mg/kg

COc1ccccc1NC(=O)[C@@H]1Cc2[nH]cnc2C(C)(C)N1C [Compd 25]
pIC50 (5-HT3; [1]): 7.85
inhibition in vivo at 0.1 mg/kg (Ferret; [2]): 93%
ED50 (Ferret; [3]): 0.026 mg/kg

CN1Cc2nc[nH]c2C[C@H]1C(=O)Nc1ccccc1NC(=O)c1ccccc1 [Compd 26]
pIC50 (5-HT3; [1]): 6.54
inhibition in vivo at 0.1 mg/kg (Ferret; [2]): 0%

CN1Cc2nc[nH]c2C[C@H]1C(=O)Nc1ccccc1Oc1ccccc1.Cl.Cl [Compd 27, (S)-5-methyl-6-(2-phenoxyphenylaminocarbonyl)-4,5,6,7-tetrahydroimidazo[4,5-c]pyridine dihydrochloride]
pIC50 (5-HT3; [1]): 8.16
inhibition in vivo at 0.1 mg/kg (Ferret; [2]): 72%
ED50 (Ferret; [3]): 0.031 mg/kg

CN1Cc2nc[nH]c2C[C@H]1C(=O)c1cccs1 [Compd 28]
pIC50 (5-HT3; [1]): 6.19
inhibition in vivo at 0.1 mg/kg (Ferret): 0%

CN1Cc2nc[nH]c2C[C@H]1C(=O)Nc1ccccc1F [Compd 29]
pIC50 (5-HT3; [1]): 6.47
inhibition in vivo at 0.1 mg/kg (Ferret; [2]): 88%
ED50 (Ferret; [3]): 0.024 mg/kg

COc1ccc(OC)c(NC(=O)[C@@H]2Cc3nc[nH]c3CN2C)c1 [Compd 30, (S)-6-(2,5-dimethoxyphenylaminocarbonyl)-5-methyl-4,5,6,7-tetrahydoimidazo[4,5-c]pyridine dihydrochloride]
pIC50 (5-HT3; [1]): 7.16
inhibition in vivo at 0.1 mg/kg (Ferret; [2]): 5%

COc1ccccc1NC(=O)[C@@H]1Cc2[nH]cnc2CN1C(C)=O [Compd 47, (S)-5-acetyl-6-(2-methoxyphenylaminocarbonyl)-4,5,6,7-tetrahydroimidazo[4,5-c]pyridine]
inhibition in vivo at 0.1 mg/kg (Ferret; [2]): 81%
ED50 (Ferret; [3]): 0.044 mg/kg

CN1C2CCCC1CC(NC(=O)c1nn(C)c3ccccc13)C2 (centres unmarked) [Granisetron, reference compound]
inhibition in vivo at 0.1 mg/kg (Ferret; [2]): 71%
ED50 (Ferret; [3]): 0.03 mg/kg

Cc1nccn1CC1CCc2c(c3ccccc3n2C)C1=O (centres unmarked) [Ondansetron, reference compound]
inhibition in vivo at 0.1 mg/kg (Ferret; [2]): 77%
ED50 (Ferret; [3]): 0.041 mg/kg
